PubChem BioAssay AID504611 (National Center for Advancing Translational Sciences (NCATS), 2011)

Tested on: Caco-2 monolayer permeability, A-to-B, LC-MS/MS
Assay: Inhibitors of 12-hLO: Caco-2 Permeability Profiling
Conditions: active compounds read high
Source text: Assay Provider: Holman, T.R., University of California, Santa Cruz Grant #: MH08128301 Screening Center PI: Austin, C.P. Screening Center: NIH Chemical Genomics Center [NCGC] Human lipoxygenase 12hLO is a member of the closely related lipoxygenase family of enzymes which catalyze the site-specific oxidation of arachidonic acid to various hormone precursor molecules and as such is a candidate for drug development in a variety of disease areas, such as cancer and inflammation. After qHTS, hits were confirmed in follow-up assays, and leads were optimized through SAR. The resulting lead compound was further characterized through a battery ADME-Tox experiments and this assay describes its Caco-2 permeability. This permeability assay predicts the in vivo absorption of the lead across the intestinal lining by using a Caco-2 cell line and measuring the lead's rate of transport […].
1. Buffer Preparation: Prepare 1M HEPES: add 23.83g HEPES to 100ml of 0.85% NaCl Prepare HBSS+ buffer: add 12.8ml of 1M HEPES in 0.85% NaCl to 500ml HBSS buffer. 2. Take out the compounds from -80 degrees C, ultrasonicate or pre-warm for a few minutes to thaw the compounds. 3. […] The T0, LY and T90, LY plates are read by FlexStation 3 at excitation of 485 nm and emission of 535 nm to determine LY permeability. […]

In the case of `CC(=O)NC(c1cccs1)c1cc(Br)c2cccnc2c1O` (stereo unspecified), the permeability Papp is reported as 8.8 10^-6 cm/s.
